According to ChEMBL document CHEMBL3860035, “Isolation and Structure Elucidation of Cytotoxic Saccharothriolides D to F from a Rare Actinomycete Saccharothrix sp. and Their Structure-Activity Relationship” (J Nat Prod, 2016):
Structures can show the parent of a compound that is named as a salt.

Assays:
[1] = Cytotoxicity against human HT1080 cells assessed as reduction cell viability after 72 hrs by WST8-based colorimetric analysis; format: functional; conditions: HT-1080, 72 h
[2] = Cytotoxicity against human HT1080 cells; format: functional, cell-based; conditions: HT-1080

SMILES	IC50 [1] [µM]	IC50 [2] [µM]
COc1cccc2c1C(=O)c1c(O)c3c(c(O)c1C2=O)C[C@@](O)(C(=O)CO)C[C@@H]3O[C@H]1C[C@H](N)[C@H](O)[C@H](C)O1 [DOXORUBICIN HYDROCHLORIDE]	0.38	–
C[C@@H]1[C@@H](Nc2ccccc2C(=O)O)[C@@H](C)C(=O)[C@@H](C)[C@@H](O)CC(=O)O[C@@H]1c1cc(O)cc(O)c1	66.4	–
C[C@@H]1[C@@H](Nc2ccccc2O)[C@@H](C)C(=O)[C@@H](C)[C@@H](O)[C@@H](C)C(=O)O[C@@H]1c1cc(O)cc(O)c1	–	13.9
C[C@@H]1[C@@H](Nc2ccccc2O)[C@@H](C)C(=O)[C@@H](C)[C@@H](O)[C@H](C)C(=O)O[C@@H]1c1cc(O)cc(O)c1	29.2	–
